According to paper PMC9616412, “Nebulized fusion inhibitory peptide protects cynomolgus macaques from measles virus infection” (Nature Communications, 2022):
Values joined by “and” are separate entries in the source; they are usually repeats but may differ in a detail not shown here. Identical values can stand only once.

Tests used:
[1] = system: MeV IC323-eGFP; assay: MeV infection of NHP: clinical signs and fluorescent rash
Procedure: Blood samples for hematology analyses were collected at days −1, 0, 1, 2, 3, 6, 9, 13, 16 and 28. Blood samples for flow cytometry analyses were collected at days −1, 3, 6, 9, 13, 16 and 28. Throat swabs were collected at days 0, 1, 2, 3, 6, 9, 13, 16 and 28, using cotton swabs. Oxygen saturation and heartbeat were monitored by a Radical-7® Pulse CO-Oximeter (Masimo) and breathing was monitored by a Dräger Primus anesthesia machine. Hematological parameters were measured on a Procyte DX (IDEXX) and biochemical parameters were evaluated on a Konelab 30 (Thermo Fisher). Development of fluorescent rash was followed using a FastGene Blue/Green LED Flashlight (Nippon genetics).

[2] = system: MeV IC323; assay: Lethal intranasal MeV infection of CD150xIFNα/βR KO mice, survival; conditions: p < 0.0001, Mantel-Cox test
Procedure: CD150xIFNα/βR KO mice[35],[36], generated by crossing hSLAM transgenic mice into an IFN Receptor α/β deficient background, were bred at the institute’s animal facility (PBES, ENS-Lyon, France) as heterozygotes for hSLAM transgenes. Three to 4 weeks old mice (males and females) were infected by intranasal route (i.n.) with 10 µl of MeV IC323 in both nares (10^4 PFU/mouse) under isoflurane anesthesia. CD150xIFNα/βR KO mice were given i.n. either 0.1 or 1 mg/kg of HRC4 peptide 24 h or 6 h before the infection. Control mice received the same number of administrations of the diluent. All animals were observed and weighed daily for four weeks and those showing clinical signs (neurological symptoms, ataxia, lethargy) were euthanized.

[3] = ELISA of HRC4 concentration in serum and urine
[4] = system: MeV; assay: Plaque reduction assay on Vero-hSLAM cells; conditions: fusion inhibition and plaque reduction in vitro before and after nebulization with mesh nebulizer
[5] = ELISA of anti-HRC4 antibodies (IgG, IgA, IgM) in serum; format: in vivo, cynomolgus macaques; conditions: for anti-HRC4 antibodies (IgG, IgA and IgM), ELISA, D28 minus day 0: serum 1:20, rep1-rep3
Procedure: (§1) Briefly, HRC4 was coated in carbonate buffer pH 9.2 overnight (1 μg /well). […] Rabbit anti-HRC4 Ab followed with anti-rabbit Ab coupled to HRP was used as a positive control. Evaluation of total IgE in the serum was performed using the monkey IgE kit (Ozyme) following the manufacturer’s recommendation.

[6] = Flow cytometry of major PBMC populations in blood; format: in vivo, cynomolgus macaques; conditions: compared to values before the nebulization
[7] = Biochemical parameters in plasma after nebulization; format: in vivo, cynomolgus macaques; conditions: noninfected animals, days 1, 2, 3, 6, 28 after nebulization
Procedure: (§2) Biochemical parameters in the plasma and cellular composition of the blood were evaluated immediately before treatment and 1, 2, 3, 6, and 28 days after nebulization of either saline or HRC4 peptide in non-infected and MeV-infected NHP, to search for early and late toxic effects of the aerosol delivery (Fig. 4). […] In both control and peptide group, few animals experienced transient increase of creatine kinase above physiological values[40] (Fig. 4a), which can be linked to intramuscular anesthesia, as described previously.

[8] = ELISA of total IgE in serum; format: in vivo, cynomolgus macaques; design: unit not given here; conditions: Peptide group
Procedure: as §1

[9] = Haematological parameters after nebulization; format: in vivo, cynomolgus macaques; conditions: noninfected animals, days 1, 2, 3, 6, 28 after nebulization
Procedure: as §2

[10] = Clinical observation for adverse effects after nebulization; conditions: during the 28 days after peptide nebulization
[11] = system: MeV IC323-eGFP; assay: ELISA of total MeV-specific immunoglobulin in serum; conditions: HRC4-treated animals P1 and P3
Procedure: Sera of MeV-infected NHPs were tested for the presence of anti-MeV antibodies by ELISA. Briefly, MeV nucleoprotein, produced as described previously[71] was coated onto 96-well ELISA plates overnight (1 μg /well). Plates were blocked using a mix of PBS 1X-Milk 5% for 30 min at room temperature. Serial dilutions (1:50 and then 1:3 serial dilutions until 1:2952450) were done in PBS 1X-Tween 0.05%-Milk and incubated 2 h at RT. […] Optical density was measured at 450 and 620 nm using an ELISA reader (Thermo Fisher) and the absorbance difference between 450 nm and 650 nm was determined and corrected for blank readings. The serum sample was considered positive when its value was higher than three times the average value obtained with the negative sera of the same dilution and the results were expressed as reciprocal value of the last serum dilution giving the measurable values.

[12] = system: MeV IC323-eGFP; assay: Class-unswitched and switched memory B cells by flow cytometry; conditions: HRC4-treated animals P1 and P3
Procedure: (§3) Whole blood was collected on EDTA, then transferred into BD vacutainer CPT tubes (after removal of anticoagulant solution from CPT tubes) and spun at 2500 g for 20 min. The PBMCs were collected and one-tenth were used to isolate RNA. […] Cells were acquired on a MACSQuant®10 flow cytometer (Miltenyi) and analyzed by FlowJo10.8 (Becton Dickinson) and Kaluza 2.1 (Beckman Coulter).

[13] = ELISA of HRC4-specific IgE in serum; format: in vivo, cynomolgus macaques; conditions: up to 4 weeks after nebulization
Procedure: as §1

[14] = system: MeV IC323-eGFP; assay: Serial passaging of MeV in presence of peptide and sequencing for escape variants; conditions: 1 µM peptide, Vero-hSLAM cells, 8 passages, sequencing of viral RNA
[15] = system: MeV IC323-eGFP; assay: Viremia: GFP+ PBMC by flow cytometry
Procedure: as §3

[16] = Immunofluorescence detection of HRC4 in lungs after nebulization; format: in vivo, cynomolgus macaques; conditions: lungs sampled 15 min, 16 h and 24 h after nebulization; anti-HRC4 immunofluorescence, all three lung regions
Procedure: To evaluate immediate HRC4 biodistribution into lungs, one animal from the MeV-infection experiment (C1) was nebulized with 3 ml (4 mg/ml) immediately after euthanasia under mechanical ventilation (Dräger Primus anesthesia machine). For mid-term biodistribution, animals were nebulized 24 h (C2) or 16 h (C3) before euthanasia.
To assess the bioavailability of the HRC4 peptide on lungs, sections were stained and imaged by confocal microscopy as described previously. Briefly, after being blocked and permeabilized in 0.1% TritonX100, 5% BSA solution, slices were sequentially incubated with a rabbit anti-HRC4 (Genscript) overnight at 4 °C and with a secondary donkey anti-rabbit alexa-555 (Thermo Fisher) diluted 1/500 and DAPI (1 µg/ml) for 1 h at room temperature. Slides were imaged using a Zeiss LSM800 confocal microscope and processed by ImageJ1.52p.

[17] = system: Vero cells; assay: Cell toxicity assay (MTT); format: cell-based; conditions: doses ranging from 0.5 nM to 4 µM, before and after nebulization, Vero-E6 cells
Procedure: Vero cells were incubated at 37 °C in the presence or absence of the indicated peptides at indicated concentrations up to 5 μM HRC4 peptide as added into the media, and the cells were incubated a 37 °C. According to the manufacturer’s guidelines, the viability was determined after 24 h using the Vybrant MTT (3- (4, 5-dimethylthiazolyl-2) −2, 5-diphenyltetrazolium bromide) cell proliferation assay kit. TritonX-100 (1%) was used as a positive control. Absorbance was read at 540 nm using a Tecan M1000PRO microplate reader.

## CC[C@H](C)[C@H](NC(=O)[C@H](C)NC(=O)[C@H](CC(N)=O)NC(=O)CNC(=O)[C@H](CC(C)C)NC(=O)[C@H](CC(N)=O)NC(=O)[C@@H](NC(=O)CNC(=O)[C@@H](NC(=O)[C@H](CC(=O)O)NC(=O)[C@H](CC(C)C)NC(=O)[C@H](CCCNC(=N)N)NC(=O)[C@H](CCC(=O)O)NC(=O)[C@H](CC(C)C)NC(=O)[C@H](CO)NC(=O)[C@@H](NC(=O)[C@@H]1CCCN1C(=O)[C@@H]1CCCN1)[C@@H](C)CC)C(C)C)[C@@H](C)O)C(=O)N[C@@H](C)C(=O)N[C@@H](CCCCN)C(=O)N[C@@H](CC(C)C)C(=O)N[C@@H](CCC(=O)O)C(=O)N[C@@H](CC(=O)O)C(=O)N[C@@H](C)C(=O)N[C@@H](CCCCN)C(=O)N[C@@H](CCC(=O)O)C(=O)N[C@@H](CC(C)C)C(=O)N[C@@H](CC(C)C)C(=O)N[C@@H](CCC(=O)O)C(=O)N[C@@H](CO)C(=O)N[C@@H](CO)C(=O)N[C@@H](CC(=O)O)C(=O)N[C@@H](CCC(N)=O)C(=O)N[C@H](C(=O)N[C@@H](CC(C)C)C(=O)N[C@@H](CCCNC(=N)N)C(=O)NCC(=O)N[C@@H](CO)C(=O)NCC(=O)N[C@@H](CO)C(=O)NCC(=O)N[C@@H](CSC1CC(=O)N(CCCC(=O)NCCOCCOCCOCCOCCC(=O)NCCN(CCNC(=O)CCOCCOCCOCCOCCNC(=O)CCCN2C(=O)CC(SC[C@H](NC(=O)CNC(=O)[C@H](CO)NC(=O)CNC(=O)[C@H](CO)NC(=O)CNC(=O)[C@H](CCCNC(=N)N)NC(=O)[C@H](CC(C)C)NC(=O)[C@@H](NC(=O)[C@H](CCC(N)=O)NC(=O)[C@H](CC(=O)O)NC(=O)[C@H](CO)NC(=O)[C@H](CO)NC(=O)[C@H](CCC(=O)O)NC(=O)[C@H](CC(C)C)NC(=O)[C@H](CC(C)C)NC(=O)[C@H](CCC(=O)O)NC(=O)[C@H](CCCCN)NC(=O)[C@H](C)NC(=O)[C@H](CC(=O)O)NC(=O)[C@H](CCC(=O)O)NC(=O)[C@H](CC(C)C)NC(=O)[C@H](CCCCN)NC(=O)[C@H](C)NC(=O)[C@@H](NC(=O)[C@H](C)NC(=O)[C@H](CC(N)=O)NC(=O)CNC(=O)[C@H](CC(C)C)NC(=O)[C@H](CC(N)=O)NC(=O)[C@@H](NC(=O)CNC(=O)[C@@H](NC(=O)[C@H](CC(=O)O)NC(=O)[C@H](CC(C)C)NC(=O)[C@H](CCCNC(=N)N)NC(=O)[C@H](CCC(=O)O)NC(=O)[C@H](CC(C)C)NC(=O)[C@H](CO)NC(=O)[C@@H](NC(=O)[C@@H]3CCCN3C(=O)[C@@H]3CCCN3)[C@@H](C)CC)C(C)C)[C@@H](C)O)[C@@H](C)CC)[C@@H](C)CC)C(=O)O)C2=O)CCO[C@H]2CC[C@@]3(C)C(=CC[C@H]4[C@@H]5CC[C@H]([C@H](C)CCCC(C)C)[C@@]5(C)CC[C@@H]43)C2)C1=O)C(=O)O)[C@@H](C)CC (stereo partly drawn) [HRC4]
[1]; absence of fluorescent rash, PBMC infection, viremia, viral shedding and MeV-specific immune response
  Abrogation of development of MeV infection: two out of three animals
[1]; nebulized HRC4 24 h and 6 h before and 24 h after intra-tracheal 10^4 PFU MeV IC323-eGFP, 3 animals
  GFP-fluorescent rash: no HRC4-treated animals
[2]; HRC4 1 mg/kg intranasal six hours before infection with 10^4 PFU
  Survival rate: significantly higher survival rate
[2]; HRC4 1 mg/kg intranasal twenty-four hours before infection with 10^4 PFU
  Survival rate: significantly higher survival rate
[3]; cynomolgus monkey, serum, inhaled or intranasal, 4 mg/kg, [HRC4] nM, serum of NHP, 96 hours post nebulization, single values
  level at time molar at 96 h: 0.285 nM
[3]; nebulized macaques
  HRC4 in urine: absent
[3]; serum of NHP, 0 hours post nebulization, single values
  [HRC4]: 0 nM
[3]; serum of NHP, 168 hours post nebulization, single values
  [HRC4]: 0 nM
[4]
  Loss of inhibitory activity by nebulization: did not cause any loss of activity
[5]; 28 days after nebulization
  HRC4 specific antibodies in serum: not found
[5]; animal P2
  anti-HRC4 antibodies (IgG, IgA and IgM), ELISA, D28 minus day 0: 0.2158 and 0.159 and 0.1449
[5]; animal P3
  anti-HRC4 antibodies (IgG, IgA and IgM), ELISA, D28 minus day 0: 0.0684 and 0.0721 and 0.0837
[6]
  Composition of major PBMC populations in blood: did not reveal any significant changes
[7]
  Biochemical parameters in plasma: within the physiological levels
[8]; animal column 1, day 0 post nebulization
  Total IgE: 1.801
[8]; animal column 1, day 3 post nebulization
  Total IgE: 3.381
[8]; animal column 1, day 6 post nebulization
  Total IgE: 4.651
[8]; animal column 1, day 13 post nebulization
  Total IgE: 17.565
[8]; animal column 1, day 28 post nebulization
  Total IgE: 2.916
[8]; animal column 2, day 0 post nebulization
  Total IgE: 1.21
[8]; animal column 2, day 3 post nebulization
  Total IgE: 1.735
[8]; animal column 2, day 6 post nebulization
  Total IgE: 1.034
[8]; animal column 2, day 13 post nebulization
  Total IgE: 2.308
[8]; animal column 2, day 28 post nebulization
  Total IgE: 3.192
[8]; animal column 3, day 0 post nebulization
  Total IgE: 3.017
[8]; animal column 3, day 3 post nebulization
  Total IgE: 5.929
[8]; animal column 3, day 6 post nebulization
  Total IgE: 6.63
[8]; animal column 3, day 13 post nebulization
  Total IgE: 5.888
[8]; animal column 3, day 28 post nebulization
  Total IgE: 1.999
[9]
  Hematological parameters: within the physiological levels
[10]
  Adverse effects (pyrexia, allergic reaction): no adverse effects
[11]
  Seroconversion: absence of seroconversion
[12]
  Memory B cell populations: remained stable without any noticeable increase
[13]
  HRC4-specific IgE in serum: did not reveal presence of any HRC4-specific IgE
[14]
  Mutations in MeV F after serial passage in presence of peptide: no mutations were identified
[15]; HRC4-treated animal P2 (co-housed with C3)
  Duration of viremia: 6 days
[15]; HRC4-treated animal P2, day 9 p.i.
  Infection of PBMCs by flow cytometry: low level
[16]
  Deposition of HRC4 in lungs: presence of HRC4 within the alveoli surface area
[17]
  Cytotoxicity: No measurable cytotoxicity
